What was measured:
AZD1775 = compound: C=CCn1c(=O)c2cnc(Nc3ccc(N4CCN(C)CC4)cc3)nc2n1-c1cccc(C(C)(C)O)n1 [AZD1775]
[1] = compound: CC(=O)Nc1cccc(-n2c(=O)n(C3CC3)c(=O)c3c(Nc4ccc(I)cc4F)n(C)c(=O)c(C)c32)c1
BVD523 = compound: CC(C)Nc1cc(-c2c[nH]c(C(=O)N[C@H](CO)c3cccc(Cl)c3)c2)c(Cl)cn1 [BVD523]
[2] = compound: CCCCOc1c(C(=O)c2c(F)cc(C)cc2F)c[nH]c2nncc1-2
THZ531 [3] = compound: T1, CN(C)C/C=C/C(=O)Nc1ccc(C(=O)N2CCC[C@@H](Nc3ncc(Cl)c(-c4c[nH]c5ccccc45)n3)C2)cc1 [THZ531]
THZ1 [4] = compound: T2, CN(C)C/C=C/C(=O)Nc1ccc(C(=O)Nc2cccc(Nc3ncc(Cl)c(-c4c[nH]c5ccccc45)n3)c2)cc1 [THZ1]
Saracatinib/AZD0530 = compound: CN1CCN(CCOc2cc(OC3CCOCC3)c3c(Nc4c(Cl)ccc5c4OCO5)ncnc3c2)CC1 [Saracatinib/AZD0530]
Rucaparib = compound: CNCc1ccc(-c2[nH]c3cc(F)cc4c3c2CCNC4=O)cc1 [Rucaparib]
[5] = compound: CO[C@@H](C)Cn1c(=O)n(C)c2cnc3ccc(-c4cncc(C(C)(C)O)c4)cc3c21
Cediranib/AZD2171 = compound: COc1cc2c(Oc3ccc4[nH]c(C)cc4c3F)ncnc2cc1OCCCN1CCCC1 [Cediranib/AZD2171]
[6] = compound: COc1ccc2c(c1)[C@]1(C[C@H]1c1ccc3c(/C=C/c4ccc(CN5C[C@@H](C)O[C@@H](C)C5)cc4)n[nH]c3c1)C(=O)N2
Alpelisib/BYL719 = compound: Cc1nc(NC(=O)N2CCC[C@H]2C(N)=O)sc1-c1ccnc(C(C)(C)C(F)(F)F)c1 [Alpelisib/BYL719]
YKL-5-124 = compound: C=CC(=O)Nc1ccc(C(=O)Nc2[nH]nc3c2CN(C(=O)N[C@H](CN(C)C)c2ccccc2)C3(C)C)cc1 [YKL-5-124]; assay: increase in dead-cell fraction, 72 h; higher = more death;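 also: breast cancer cell lines in 384-well plates, stained with Hoechst plus LIVE/DEAD far red dye and imaged, cells above an LDR intensity threshold counted dead, Hoechst-negative corpses included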
BSJ-03-123 = compound: CC(=O)c1c(C)c2cnc(Nc3ccc(N4CCN(CCOCCOCCOCCNC(=O)COc5cccc6c5C(=O)N(C5CCC(=O)NC5=O)C6=O)CC4)cn3)nc2n(C2CCCC2)c1=O [BSJ-03-123]; assay: as above
[7] = compound: CC(=O)c1c(C)c2cnc(Nc3ccc(N4CCNCC4)cn3)nc2n(C2CCCC2)c1=O; assay: as above
Neratinib/HKI272 = compound: CCOc1cc2ncc(C#N)c(Nc3ccc(OCc4ccccn4)c(Cl)c3)c2cc1NC(=O)/C=C/CN(C)C [Neratinib/HKI272]; assay: as above
[8] = compound: CCc1cnn2c(NCc3ccc[n+]([O-])c3)cc(N3CCCC[C@H]3CCO)nc12; assay: as above
LEE011/Ribociclib = compound: CN(C)C(=O)c1cc2cnc(Nc3ccc(N4CCNCC4)cn3)nc2n1C1CCCC1 [LEE011/Ribociclib]; assay: as above
THZ531 [9] = compound: T1, THZ531; assay: as above
THZ1 [10] = compound: T2, THZ1; assay: as above
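For GR50, 72 h in this document: breast cancer and non-malignant breast epithelial cell lines, Deep Dye Drop or Dye Drop imaging, nine half-log doses, GR normalized to time-zero plates and DMSO-only controls.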

For MDAMB231, the “GR50, 72 h” value (AZD1775) was 0.0633 µM, the “GR50, 72 h” value [1] was 0.00263 µM and the “GR50, 72 h” value (BVD523) was 1.13 µM. For the same cell line, the “GR50, 72 h” value [2] was 1.16 µM, the “GR50, 72 h” value (THZ531 [3]) was 0.245 µM and the “GR50, 72 h” value (THZ1 [4]) was 0.0662 µM. The “GR50, 72 h” value (Saracatinib/AZD0530) was 2.33 µM, the “GR50, 72 h” value (Rucaparib) was greater than 10 µM and the “GR50, 72 h” value [5] was 0.031 µM. The “GR50, 72 h” value (Cediranib/AZD2171) was 5.1 µM, the “GR50, 72 h” value [6] was 0.00366 µM and the “GR50, 72 h” value (Alpelisib/BYL719) was greater than 10 µM. The “increase in dead-cell fraction” value (YKL-5-124; 0.001 µM) was 0.0171, the “increase in dead-cell fraction” value (YKL-5-124; 0.003162 µM) was 0.0093 and the “increase in dead-cell fraction” value (YKL-5-124; 0.01 µM) was 0.016. The “increase in dead-cell fraction” value (YKL-5-124; 0.03162 µM) was 0.0176, the “increase in dead-cell fraction” value (YKL-5-124; 0.1 µM) was 0.0238 and the “increase in dead-cell fraction” value (YKL-5-124; 0.3162 µM) was 0.0218. For the same cell line, the “increase in dead-cell fraction” value (YKL-5-124; 1 µM) was 0.0259, the “increase in dead-cell fraction” value (YKL-5-124; 3.162 µM) was 0.0247 and the “increase in dead-cell fraction” value (YKL-5-124; 10 µM) was 0.155. The “increase in dead-cell fraction” value (BSJ-03-123; 0.001 µM) was -0.0008, the “increase in dead-cell fraction” value (BSJ-03-123; 0.003162 µM) was -0.0016 and the “increase in dead-cell fraction” value (BSJ-03-123; 0.01 µM) was 0.0034. For the same cell line, the “increase in dead-cell fraction” value (BSJ-03-123; 0.03162 µM) was 0.0017, the “increase in dead-cell fraction” value (BSJ-03-123; 0.1 µM) was 0.0035 and the “increase in dead-cell fraction” value (BSJ-03-123; 0.3162 µM) was 0.0024. The “increase in dead-cell fraction” value (BSJ-03-123; 1 µM) was 0.0009, the “increase in dead-cell fraction” value (BSJ-03-123; 3.162 µM) was 0.0031 and the “increase in dead-cell fraction” value (BSJ-03-123; 10 µM) was 0.157. The “increase in dead-cell fraction” value ([7]; 0.0003162 µM) was -0.0007, the “increase in dead-cell fraction” value ([7]; 0.001 µM) was 0.0057 and the “increase in dead-cell fraction” value ([7]; 0.003162 µM) was -0.0035. For the same cell line, the “increase in dead-cell fraction” value ([7]; 0.01 µM) was -0.0069, the “increase in dead-cell fraction” value ([7]; 0.03162 µM) was -0.0054 and the “increase in dead-cell fraction” value ([7]; 0.1 µM) was 0.0066. The “increase in dead-cell fraction” value ([7]; 0.3162 µM) was 0.0151, the “increase in dead-cell fraction” value ([7]; 1 µM) was 0.0334 and the “increase in dead-cell fraction” value ([7]; 3.162 µM) was 0.0399. For the same cell line, the “increase in dead-cell fraction” value (Neratinib/HKI272; 0.0003162 µM) was 0.0013, the “increase in dead-cell fraction” value (Neratinib/HKI272; 0.001 µM) was -0.0029 and the “increase in dead-cell fraction” value (Neratinib/HKI272; 0.003162 µM) was 0.0044. For the same cell line, the “increase in dead-cell fraction” value (Neratinib/HKI272; 0.01 µM) was 0.0008, the “increase in dead-cell fraction” value (Neratinib/HKI272; 0.03162 µM) was 0.0108 and the “increase in dead-cell fraction” value (Neratinib/HKI272; 0.1 µM) was 0.0067. The “increase in dead-cell fraction” value (Neratinib/HKI272; 0.3162 µM) was 0.0175, the “increase in dead-cell fraction” value (Neratinib/HKI272; 1 µM) was 0.0509 and the “increase in dead-cell fraction” value (Neratinib/HKI272; 3.162 µM) was 0.378. The “increase in dead-cell fraction” value ([8]; 0.0001 µM) was 0.0051, the “increase in dead-cell fraction” value ([8]; 0.0003162 µM) was -0.0006 and the “increase in dead-cell fraction” value ([8]; 0.001 µM) was 0.0055. For the same cell line, the “increase in dead-cell fraction” value ([8]; 0.003162 µM) was -0.0028, the “increase in dead-cell fraction” value ([8]; 0.01 µM) was 0.0529 and the “increase in dead-cell fraction” value ([8]; 0.03162 µM) was 0.459. For the same cell line, the “increase in dead-cell fraction” value ([8]; 0.1 µM) was 0.573, the “increase in dead-cell fraction” value ([8]; 0.3162 µM) was 0.582 and the “increase in dead-cell fraction” value ([8]; 1 µM) was 0.618. The “increase in dead-cell fraction” value (LEE011/Ribociclib; 0.001 µM) was -0.0007, the “increase in dead-cell fraction” value (LEE011/Ribociclib; 0.003162 µM) was -0.0028 and the “increase in dead-cell fraction” value (LEE011/Ribociclib; 0.01 µM) was 0.0009. The “increase in dead-cell fraction” value (LEE011/Ribociclib; 0.03162 µM) was -0.0021, the “increase in dead-cell fraction” value (LEE011/Ribociclib; 0.1 µM) was 0.0045 and the “increase in dead-cell fraction” value (LEE011/Ribociclib; 0.3162 µM) was 0.005. For the same cell line, the “increase in dead-cell fraction” value (LEE011/Ribociclib; 1 µM) was 0.0045, the “increase in dead-cell fraction” value (LEE011/Ribociclib; 3.162 µM) was 0.0025 and the “increase in dead-cell fraction” value (LEE011/Ribociclib; 10 µM) was 0.014. The “increase in dead-cell fraction” value (THZ531 [9]; 0.0001 µM) was -0.0027, the “increase in dead-cell fraction” value (THZ531 [9]; 0.0003162 µM) was -0.0002 and the “increase in dead-cell fraction” value (THZ531 [9]; 0.001 µM) was 0.002. For the same cell line, the “increase in dead-cell fraction” value (THZ531 [9]; 0.003162 µM) was -0.0005, the “increase in dead-cell fraction” value (THZ531 [9]; 0.01 µM) was -0.0004 and the “increase in dead-cell fraction” value (THZ531 [9]; 0.03162 µM) was 0.0008. For the same cell line, the “increase in dead-cell fraction” value (THZ531 [9]; 0.1 µM) was 0.0103, the “increase in dead-cell fraction” value (THZ531 [9]; 0.3162 µM) was 0.0403 and the “increase in dead-cell fraction” value (THZ531 [9]; 1 µM) was 0.224. For the same cell line, the “increase in dead-cell fraction” value (THZ1 [10]; 0.0001 µM) was -0.0006, the “increase in dead-cell fraction” value (THZ1 [10]; 0.0003162 µM) was 0.0015 and the “increase in dead-cell fraction” value (THZ1 [10]; 0.001 µM) was 0.0027. The “increase in dead-cell fraction” value (THZ1 [10]; 0.003162 µM) was 0.0007, the “increase in dead-cell fraction” value (THZ1 [10]; 0.01 µM) was -0.0012 and the “increase in dead-cell fraction” value (THZ1 [10]; 0.03162 µM) was 0.0033. For the same cell line, the “increase in dead-cell fraction” value (THZ1 [10]; 0.1 µM) was 0.0231, the “increase in dead-cell fraction” value (THZ1 [10]; 0.3162 µM) was 0.0712 and the “increase in dead-cell fraction” value (THZ1 [10]; 1 µM) was 0.363.

— the supplement of paper PMC9663587
